Assay results: patent US6566081B1, “Methods of identifying a compound which modulates the non-transcriptional non-map-kinase induced effects of steroid hormones” (The Brigham and Women's Hospital, Inc., priority 1999, dated 2003)
Entries after “also recorded” stand apart in the source; their conditions may differ.

Columns and labels:
[1] = molecular target: T1, eNOS (Mus musculus, UniProt P70313); experiment: Cremaster eNOS activity in mice; assay type: in vivo; details: L-NAME 0.1 mM, E2-treated mice
T1 construct: from tissue; host or cells: cremaster muscle of male C57BL/6 mice
T1 sequence (P70313 2-1202): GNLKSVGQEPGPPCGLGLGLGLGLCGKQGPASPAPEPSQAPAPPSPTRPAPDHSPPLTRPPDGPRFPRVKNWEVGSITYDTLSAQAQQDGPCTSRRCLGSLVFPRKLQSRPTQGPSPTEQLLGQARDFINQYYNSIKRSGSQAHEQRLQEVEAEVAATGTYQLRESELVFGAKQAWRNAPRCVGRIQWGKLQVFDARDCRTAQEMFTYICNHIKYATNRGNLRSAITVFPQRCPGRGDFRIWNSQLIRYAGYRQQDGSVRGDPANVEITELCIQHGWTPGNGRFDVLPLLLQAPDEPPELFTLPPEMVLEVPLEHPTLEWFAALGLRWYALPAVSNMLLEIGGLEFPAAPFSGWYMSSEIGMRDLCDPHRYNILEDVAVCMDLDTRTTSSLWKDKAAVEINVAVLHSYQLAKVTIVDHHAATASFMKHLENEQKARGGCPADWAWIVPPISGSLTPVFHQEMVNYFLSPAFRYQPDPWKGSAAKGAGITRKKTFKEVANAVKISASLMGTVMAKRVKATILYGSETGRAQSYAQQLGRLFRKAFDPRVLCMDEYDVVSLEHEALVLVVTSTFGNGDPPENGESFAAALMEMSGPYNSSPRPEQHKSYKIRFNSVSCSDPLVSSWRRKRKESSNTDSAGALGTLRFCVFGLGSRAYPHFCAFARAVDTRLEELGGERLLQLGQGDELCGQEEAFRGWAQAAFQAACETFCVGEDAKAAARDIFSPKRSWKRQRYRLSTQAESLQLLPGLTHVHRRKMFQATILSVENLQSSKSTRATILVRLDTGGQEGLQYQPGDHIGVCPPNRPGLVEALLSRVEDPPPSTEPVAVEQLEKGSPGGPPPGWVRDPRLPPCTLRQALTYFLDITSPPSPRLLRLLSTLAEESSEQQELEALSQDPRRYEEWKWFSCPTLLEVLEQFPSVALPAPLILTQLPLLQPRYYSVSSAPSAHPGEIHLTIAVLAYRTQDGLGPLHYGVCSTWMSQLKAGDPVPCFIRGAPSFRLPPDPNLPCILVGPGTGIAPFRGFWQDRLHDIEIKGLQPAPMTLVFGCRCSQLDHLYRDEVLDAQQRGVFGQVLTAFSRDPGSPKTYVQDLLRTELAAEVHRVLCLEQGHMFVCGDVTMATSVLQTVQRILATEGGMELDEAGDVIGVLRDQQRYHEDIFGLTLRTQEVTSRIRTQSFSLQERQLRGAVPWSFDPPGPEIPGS
Method: (§1) Mice were anesthetized and the cremaster muscle was studied under intravital microscopy^28. Ischemia was induced by applying pressure to supplying arteries just sufficient to stop blood flow for 30 min. In some experiments, wortmannin (100 nM) or L-NAME (0.1 mM) was applied to the cremaster muscle during the ischemic period. The pressure was released for reperfusion, and the same vessels were recorded in each animal before and after I/R. The rolling velocities of 25 leukocytes were measured in each venule; sorted and averaged for each rank to construct cumulative histograms. The velocities of 3,750 leukocytes were measured in 150 venules before and after I/R. The number of firmly adherent leukocytes was measured before and after I/R in the same 200 μm long segments of venules. The following number of venules were studies for leukocyte adhesion: Untreated, 15 venules; E2-treated, 20 venules; E2-treated with wortmannin, 25 venules; E2-treated with L-NAME, 15 venules. Cremaster eNOS activity was measured in 3 untreated, 4 E2-treated, 5 E2-treated with wortmannin, and 4 E2-treated with L-NAME mice.

[2] = system: mouse cremaster muscle venules; experiment: Model of vascular injury: ischemia and reperfusion in the mouse cremaster muscle (leukocyte rolling and adhesion); assay type: in vivo; details: wortmannin 100 nM or L-NAME 0.1 mM during ischemia
Method: as §1, with “venules.” for “venules. The following number of venules were studies for leukocyte adhesion: Untreated, 15 venules; E2-treated, 20 venules; E2-treated with wortmannin, 25 venules; E2-treated with L-NAME, 15 venules. Cremaster eNOS activity was measured in 3 untreated, 4 E2-treated, 5 E2-treated with wortmannin, and 4 E2-treated with L-NAME mice.”

[3] = system: PI3-kinase; experiment: PI3-kinase assay on p85 immunoprecipitates of endothelial cell lysates; assay type: cell-based, human; details: E2 10 nM 20 min; ICI 10 μM, wortmannin 30 nM
Method: PI3kinase activity in endothelial cell lysates was assayed using the borate thin layer chromatography method, as described.^34 Following a 6 h incubation in serum- and estrogen-deficient medium 199, endothelial cells were treated according to the indicated conditions, washed, and harvested in ice-cold lysis buffer (137 mM NaCl, 20 mM Tris-HCl, pH 7.4, 1 mM CaCl2, 1 mM Mg Cl2, 0.1 mM Na3VO4, 1% NP-40). After pelleting the cell debris, the supernatant was incubated for 1 hour at 4° C. with 5 μL of a rabbit antiserum directed against the p85 regulatory subunit of the PI3-kinase (Upstate Biotechnology, Lake Placid, N.Y.), and immunoprecipitated with the addition of 50 μL of a 1:1 slurry of protein A-agarose for 1 hour at 4° C. Following centrifugation, the immunoprecipitates were washed three times with lysis buffer, three times with 0.1 M Tris-HCl, pH 7.4, 5 mM LiCl, 0.1 mM Na3VO4, followed by two washes with 10 mM Tris-HCl, pH 7.4, 150 mM NaCl, 5 mM EDTA, 0.1 mM Na3VO4.
The immunoprecipitates were then mixed with 50 μL Tris-HCl, pH 7.4, 150 mM NaCl, 5 mM EDTA, 20 μg of phosphatidylinositol (Sigma, Saint Louis, Mo.), 10 μL 100 mM MgCl2 and 5 μL of a 0.88 mM ATP, 20 mM MgCl2 solution, containing 30 μCi of [γ-^32P]ATP (3000 Ci/mmol; NEN Life Science Products, Boston, Mass.). […] The phospholipids were extracted with 160 μL of chloroform/methanol (1:1, v/v). 50 μL of the organic phase, containing the labeled PI3-kinase products were separated by borate thin layer chromatography on glass-backed Silica Gel 60 plates (EM Separations, Gibbstown, N.J.) pretreated with a solution containing 25 mM trans-1,2-diaminocyclohexane-N,N,N′N′-tetraacetic acid (CDTA, Sigma, Saint Louis, Mo.), 66% (v/v) ethanol and 0.06 N NaOH, dried for 1 hour and then baked at 100° C. for 15 minutes. The chromatography was developed with a solution containing 37.5% (v/v) methanol, 30% (v/v) chloroform, 22.5% (v/v) pyridine (Sigma, Saint Louis, Mo.), 1.33% (v/v) formic acid, […] boric acid and 8.5 mM butylated hydroxytoluene (Sigma, Saint Louis, Mo.), briefly dried and exposed to autoradiography.

[4] = system: eNOS; experiment: eNOS activity assay (conversion of [3H]-arginine to [3H]-citrulline) in treated human endothelial cells; assay type: cell-based; details: E2 10 nM, wortmannin 30 nM, genistein 50 μM, PD98059 5 μM; for effect on E2-stimulated eNOS activity, later phase (≥15 min) or 30 min: ICI 10 μM, actinomycin D 2 h pretreatment
Method: Fetal bovine serum was deprived of estrogen by charcoal-stripping. Once grown to confluence the cells were replated on 1.5% gelatin-coated flasks at 20000 cells/cm^2. […] Cell number was assessed by direct cell counting of adherent cells, after trypsin detachment, in a Neubauer hemocytometer (VWR Scientifics). The percentage of cells excluding Trypan Blue after staining with the compound was taken as a measure of cell viability.
Endothelial cells were grown to confluence on 55 cm^2 culture dishes, treated according to the indicated conditions, and harvested in ice-cold PBS containing 1 mM EDTA. The cell lysates were pelleted in a microfuge (2 minutes, 13000 rpm, 4° C.) and subsequently homogenized in a buffer containing 25 mM Tris-HCl, pH 7.4, 1 mM EDTA, 1 mM EGTA. eNOS activity was determined by measuring the conversion of [^3H]-arginine to [^3H]-citrulline. Rat cerebellum extracts, containing elevated amounts of neuronal NOS, were used as positive controls, while endothelial cell extracts incubated in the presence of the competitive eNOS inhibitor L-NAME (1 mM) served as negative controls.
Human and bovine aortic endothelial cells were harvested enzymatically with Type IA collagenase (1 mg/mL).

[5] = molecular target: T2, ER-α / PI3-kinase p85α (Homo sapiens, UniProt P03372); experiment: ER-α immunoprecipitation: co-precipitated p85α and associated PI3-kinase activity; assay type: cell-based; details: ICI 10 μM, wortmannin, tamoxifen 1 μM, PD 98059 5 μM, actinomycin D 5 μM
T2 construct: endogenous in cells; host or cells: human endothelial cells (HSVEC), anti-ERα immunoprecipitate
T2 sequence (P03372 1-595): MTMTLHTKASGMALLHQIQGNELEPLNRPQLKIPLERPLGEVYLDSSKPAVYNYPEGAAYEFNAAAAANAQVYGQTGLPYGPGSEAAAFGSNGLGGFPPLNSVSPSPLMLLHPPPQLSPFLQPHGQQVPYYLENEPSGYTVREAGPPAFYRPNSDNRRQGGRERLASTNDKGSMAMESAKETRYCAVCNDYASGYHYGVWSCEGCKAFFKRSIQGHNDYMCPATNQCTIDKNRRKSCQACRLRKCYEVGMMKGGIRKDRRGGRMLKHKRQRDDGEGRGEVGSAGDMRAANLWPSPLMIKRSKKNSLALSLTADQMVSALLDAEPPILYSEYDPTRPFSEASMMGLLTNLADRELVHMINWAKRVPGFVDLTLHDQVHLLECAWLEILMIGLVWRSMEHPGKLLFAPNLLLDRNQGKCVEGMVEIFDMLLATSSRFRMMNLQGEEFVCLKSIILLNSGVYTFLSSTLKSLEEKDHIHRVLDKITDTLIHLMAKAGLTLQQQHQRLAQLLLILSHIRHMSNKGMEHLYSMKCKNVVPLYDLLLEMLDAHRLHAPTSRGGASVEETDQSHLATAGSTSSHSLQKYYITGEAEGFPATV

[6] = system: ERK 1 and 2; experiment: Immunoblotting of ERK 1/2 phosphorylation; assay type: cell-based, human; details: E2 10 nM, PD 98059 5 μM
Method: After the different treatments, serum-starved endothelial cells were rinsed once with ice-cold PBS before addition of the lysis buffer (100 mM Tris-HCl, pH 6.8, 4% SDS, 20% glycerol, 1 mM sodium orthovanadate, 1 mM NaF, and 1 mM phenylmethylsulfonylfluoride) to the dishes on an ice tray. The cell lysates were scraped, boiled, and centrifuged for 2 min at 13000 rpm. Total cell lysates (40 μg of protein) and low range molecular weight markers (BIO-RAD, Hercules, Calif.) were separated by SDS-polyacrylamide gel electrophoresis (12% running, 4% stacking), electrophoretically transferred to polyvinylidene fluoride membranes (Immobilon P, 0.45 μm pore size) and incubated overnight at 4° C. with blocking solution (5% skim milk in TBS—0.1% Tween 20). Affinity-purified rabbit antibodies (0.4 μg of IgG/ml) vs. Akt, (Ser 473) phospho-Akt or (Thr 308) phospho-Akt (New England BioLabs, Beverly, Mass.), Erk1/2, (Tyr 204) phospho-Erk-1/-2 (Calbiochem, San Diego, Calif.) were incubated with the membranes overnight at 4° C. in TBS—0.1% Tween 20 containing 5% BSA. The blots were washed three times with TBS—0.1% Tween 20 and then treated with donkey anti-rabbit antibody (1:4000 dilution) coupled to horseradish peroxidase. Immunodetection was accomplished using the enhanced chemoluminescence kit (ECL Kit, Amersham Corp.).

[7] = molecular target: T3, ERα-p85α interaction (Homo sapiens, UniProt P03372); experiment: GST fusion protein-affinity purification (GST-p85α and recombinant ERα, cell-free); assay type: binding; details: recombinant ERα, Hsp90 0.5 μg
T3 construct: purchased Panvera (ERα)
T3 sequence (P27986 whole entry partner, one chain of several, the tested form may be a part): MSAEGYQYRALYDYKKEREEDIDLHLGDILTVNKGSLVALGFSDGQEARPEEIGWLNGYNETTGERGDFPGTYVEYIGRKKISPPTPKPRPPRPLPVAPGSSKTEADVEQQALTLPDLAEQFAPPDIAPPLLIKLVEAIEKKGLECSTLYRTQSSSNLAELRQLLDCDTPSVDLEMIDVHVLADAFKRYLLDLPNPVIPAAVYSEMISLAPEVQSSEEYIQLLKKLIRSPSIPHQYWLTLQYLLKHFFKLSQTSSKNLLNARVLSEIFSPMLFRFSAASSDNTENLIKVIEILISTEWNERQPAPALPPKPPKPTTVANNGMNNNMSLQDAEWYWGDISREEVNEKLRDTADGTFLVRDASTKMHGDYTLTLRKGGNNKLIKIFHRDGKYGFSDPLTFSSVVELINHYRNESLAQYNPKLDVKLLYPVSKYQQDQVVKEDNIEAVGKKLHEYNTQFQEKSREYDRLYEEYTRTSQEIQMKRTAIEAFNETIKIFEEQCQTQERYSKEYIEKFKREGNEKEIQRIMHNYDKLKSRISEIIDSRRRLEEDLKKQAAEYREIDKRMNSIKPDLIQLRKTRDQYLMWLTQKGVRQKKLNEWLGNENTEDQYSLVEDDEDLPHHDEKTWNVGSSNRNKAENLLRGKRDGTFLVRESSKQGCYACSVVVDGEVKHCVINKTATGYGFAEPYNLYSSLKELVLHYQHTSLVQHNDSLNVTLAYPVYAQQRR
Method: Human recombinant GST-p85α fusion protein or GST (Sigma, St. Louis, Mo.) bound to glutathione-agarose beads (1 μg protein/20 μL beads) were suspended in 400 μL of E. Coli protein extract solution (10 mg/mL) and incubated with 1 μg human recombinant ERα (Panvera, Madison, Wis.) for 1 h at 4° C. The samples were pelleted, and the beads were washed 5 times with a buffer containing 50 mM potassium phosphate, pH 7.5, 150 mM KCl, 1 mM MgCl2, 10% (v/v) glycerol, 1% (v/v) Triton X-100 plus protease inhibitors. The beads were re-suspended in 50 μL of 2×Laemmli's buffer and boiled for 5 min. Proteins were separated on SDS-polyacrylamide gel electrophoresis.

## COC(=O)[C@@H](N)CCCNC(=N)N[N+](=O)[O-] [L-NAME, L-nitroarginine methylester]
[1]
  effect of applied inhibitor on cremaster eNOS activity: decreased eNOS activity below that of untreated mice
[2]
  leukocyte rolling velocity and accumulation, untreated vs E2-treated mice following I/R, with inhibitor applied to the cremaster muscle: not different

## COc1cccc(-c2cc(=O)c3ccccc3o2)c1N [PD98059]
[3]
  effect on E2-induced PI3-kinase activation: only minimally affected
[4]
  effect on E2-stimulated eNOS activity, later phase (≥15 min) or 30 min: only minimally affected; also recorded: not the later phase; also recorded: little or no inhibitory effect
  effect on E2-stimulated eNOS activity, initial phase (first 5-10 min): able to block; also recorded: significantly blocked
[4]; listed as PD 98059
  effect on E2-stimulated eNOS activity, later phase (≥15 min) or 30 min: do not block
  effect on E2-stimulated eNOS activity, initial phase (first 5-10 min): blunt
[5]
  effect on E2-stimulated ER-α-associated PI3-kinase activity: not
[6]
  effect on E2-stimulated ERK-1 and -2 phosphorylation: inhibited
[6]; listed as PD 98059
  effect on E2-stimulated ERK-1 and -2 phosphorylation: abolished

## Heat shock protein 90: heat shock protein that binds and facilitates the function of ER and eNOS
[7]
  effect on interaction of ERα and p85α: inhibited
[7]; listed as Hsp90
  effect on interaction of ERα and p85α: inhibits
